Experiment: Treatment-emergent adverse events (MedDRA, NCI-CTCAE v4.03), safety populations
Format: in vivo, human
Settings: Part B, 400 mg QD (N = 49)
Procedure: Overall safety in Parts A and B was assessed by tabulating TEAEs, coded using the Medical Dictionary for Regulatory Activities (MedDRA) version 22.1, and graded according to NCI-CTCAE v4.03 criteria. TEAEs were classified as related or unrelated to amcenestrant therapy based upon the local investigating physician’s clinical judgment. The safety population included all patients exposed to at least one dose of the study treatment. Results were analyzed using descriptive statistics.

O=C(O)c1ccc2c(c1)CCCC(c1ccc(Cl)cc1Cl)=C2c1ccc(O[C@H]2CCN(CCCF)C2)cc1 [amcenestrant, 6-(2,4-Dichlorophenyl)−5-[4-[(3S)−1-(3-fluoropropyl)pyrrolidin-3-yl]oxyphenyl]−8,9-dihydro-7H-benzo[7]annulene-2-carboxylic acid]
Back pain, TEAEs, All grades: 5 (10.2) n (%)
Back pain, TEAEs, Grade 1: 3 (6.1) n (%)
Back pain, TEAEs, Grade 2: 2 (4.1) n (%)
Back pain, TEAEs, Grade ≥3: 0 n (%)
Back pain, Treatment-related TEAEs, All Grades: 0 n (%)
Back pain, Treatment-related TEAEs, Grade 1: 0 n (%)
Back pain, Treatment-related TEAEs, Grade 2: 0 n (%)
Back pain, Treatment-related TEAEs, Grade ≥3: 0 n (%)
Constipation, TEAEs, All grades: 14 (28.6) n (%)
Constipation, TEAEs, Grade 1: 12 (24.5) n (%)
Constipation, TEAEs, Grade 2: 2 (4.1) n (%)
Constipation, TEAEs, Grade ≥3: 0 n (%)
Constipation, Treatment-related TEAEs, All Grades: 3 (6.1) n (%)
Constipation, Treatment-related TEAEs, Grade 1: 2 (4.1) n (%)
Constipation, Treatment-related TEAEs, Grade 2: 1 (2.0) n (%)
Constipation, Treatment-related TEAEs, Grade ≥3: 0 n (%)
Cough, TEAEs, All grades: 4 (8.2) n (%)
Cough, TEAEs, Grade 1: 4 (8.2) n (%)
Cough, TEAEs, Grade 2: 0 n (%)
Cough, TEAEs, Grade ≥3: 0 n (%)
Cough, Treatment-related TEAEs, All Grades: 1 (2.0) n (%)
Cough, Treatment-related TEAEs, Grade 1: 1 (2.0) n (%)
Cough, Treatment-related TEAEs, Grade 2: 0 n (%)
Cough, Treatment-related TEAEs, Grade ≥3: 0 n (%)
Decreased appetite, TEAEs, All grades: 7 (14.3) n (%)
Decreased appetite, TEAEs, Grade 1: 5 (10.2) n (%)
Decreased appetite, TEAEs, Grade 2: 2 (4.1) n (%)
Decreased appetite, TEAEs, Grade ≥3: 0 n (%)
Decreased appetite, Treatment-related TEAEs, All Grades: 2 (4.1) n (%)
Decreased appetite, Treatment-related TEAEs, Grade 1: 2 (4.1) n (%)
Decreased appetite, Treatment-related TEAEs, Grade 2: 0 n (%)
Decreased appetite, Treatment-related TEAEs, Grade ≥3: 0 n (%)
Depression, TEAEs, All grades: 3 (6.1) n (%)
Depression, TEAEs, Grade 1: 3 (6.1) n (%)
Depression, TEAEs, Grade 2: 0 n (%)
Depression, TEAEs, Grade ≥3: 0 n (%)
Depression, Treatment-related TEAEs, All Grades: 2 (4.1) n (%)
Depression, Treatment-related TEAEs, Grade 1: 2 (4.1) n (%)
Depression, Treatment-related TEAEs, Grade 2: 0 n (%)
Depression, Treatment-related TEAEs, Grade ≥3: 0 n (%)
Diarrhea, TEAEs, All grades: 8 (16.3) n (%)
Diarrhea, TEAEs, Grade 1: 5 (10.2) n (%)
Diarrhea, TEAEs, Grade 2: 2 (4.1) n (%)
Diarrhea, TEAEs, Grade ≥3: 1 (2.0) n (%)
Diarrhea, Treatment-related TEAEs, All Grades: 1 (2.0) n (%)
Diarrhea, Treatment-related TEAEs, Grade 1: 1 (2.0) n (%)
Diarrhea, Treatment-related TEAEs, Grade 2: 0 n (%)
Diarrhea, Treatment-related TEAEs, Grade ≥3: 0 n (%)
Dry skin, TEAEs, All grades: 3 (6.1) n (%)
Dry skin, TEAEs, Grade 1: 2 (4.1) n (%)
Dry skin, TEAEs, Grade 2: 1 (2.0) n (%)
Dry skin, TEAEs, Grade ≥3: 0 n (%)
Dry skin, Treatment-related TEAEs, All Grades: 1 (2.0) n (%)
Dry skin, Treatment-related TEAEs, Grade 1: 1 (2.0) n (%)
Dry skin, Treatment-related TEAEs, Grade 2: 0 n (%)
Dry skin, Treatment-related TEAEs, Grade ≥3: 0 n (%)
Dyspnea, TEAEs, All grades: 8 (16.3) n (%)
Dyspnea, TEAEs, Grade 1: 6 (12.2) n (%)
Dyspnea, TEAEs, Grade 2: 2 (4.1) n (%)
Dyspnea, TEAEs, Grade ≥3: 0 n (%)
Dyspnea, Treatment-related TEAEs, All Grades: 1 (2.0) n (%)
Dyspnea, Treatment-related TEAEs, Grade 1: 1 (2.0) n (%)
Dyspnea, Treatment-related TEAEs, Grade 2: 0 n (%)
Dyspnea, Treatment-related TEAEs, Grade ≥3: 0 n (%)
Edema peripheral, TEAEs, All grades: 3 (6.1) n (%)
Edema peripheral, TEAEs, Grade 1: 3 (6.1) n (%)
Edema peripheral, TEAEs, Grade 2: 0 n (%)
Edema peripheral, TEAEs, Grade ≥3: 0 n (%)
Edema peripheral, Treatment-related TEAEs, All Grades: 1 (2.0) n (%)
Edema peripheral, Treatment-related TEAEs, Grade 1: 1 (2.0) n (%)
Edema peripheral, Treatment-related TEAEs, Grade 2: 0 n (%)
Edema peripheral, Treatment-related TEAEs, Grade ≥3: 0 n (%)
Fatigue, TEAEs, All grades: 12 (24.5) n (%)
Fatigue, TEAEs, Grade 1: 8 (16.3) n (%)
Fatigue, TEAEs, Grade 2: 2 (4.1) n (%)
Fatigue, TEAEs, Grade ≥3: 2 (4.1) n (%)
Fatigue, Treatment-related TEAEs, All Grades: 2 (4.1) n (%)
Fatigue, Treatment-related TEAEs, Grade 1: 2 (4.1) n (%)
Fatigue, Treatment-related TEAEs, Grade 2: 0 n (%)
Fatigue, Treatment-related TEAEs, Grade ≥3: 0 n (%)
Gastroesophageal reflux disease, TEAEs, All grades: 4 (8.2) n (%)
Gastroesophageal reflux disease, TEAEs, Grade 1: 4 (8.2) n (%)
Gastroesophageal reflux disease, TEAEs, Grade 2: 0 n (%)
Gastroesophageal reflux disease, TEAEs, Grade ≥3: 0 n (%)
Gastroesophageal reflux disease, Treatment-related TEAEs, All Grades: 3 (6.1) n (%)
Gastroesophageal reflux disease, Treatment-related TEAEs, Grade 1: 3 (6.1) n (%)
Gastroesophageal reflux disease, Treatment-related TEAEs, Grade 2: 0 n (%)
Gastroesophageal reflux disease, Treatment-related TEAEs, Grade ≥3: 0 n (%)
Headache, TEAEs, All grades: 3 (6.1) n (%)
Headache, TEAEs, Grade 1: 3 (6.1) n (%)
Headache, TEAEs, Grade 2: 0 n (%)
Headache, TEAEs, Grade ≥3: 0 n (%)

Reference: PMC9284491 (Nature Communications, 2022)
